Experimental data published in US20100298376A1, “USE OF NOVEL NEUROPROTECTIVE 3-SUBSTITUTED INDOLONE COMPOSITIONS” (BOARD OF REGENTS, THE UNIVERSITY OF TEXAS SYSTEM, priority 2009, published 2010).
“And” between values parts separate entries of the source, which are not always exact repeats. Equal values may be shown once. Read-outs that look alike come from different tables or passages of the source.

Test system: cerebellar granule neurons
Conditions: for % neuronal survival Mean ± SD: 24 hours, percent of HK control
Description: These compounds were analyzed for their neuroprotective activity in vitro. Granule neuron cultures were obtained from dissociated cerebella of 7-8 day old Wistar rats as known to one of ordinary skill in the art. Cells were plated in Basal Eagle's Medium with Earles salts (BME) supplemented with 10% fetal calf serum (FCS), 25 mM KCl, 2 mM glutamine (Invitrogen), and 100 μg/ml gentamycin on dishes (Nunc) coated with poly-L-lysine in 24-well dishes at a density 1×10^6 cells/well. Cytosine arabinofuranoside (10 μM) was added to the culture medium 18-22 hours after plating to prevent replication of non-neuronal cells that yields highly pure culture of granule neurons. The neuronal cultures were maintained for 7-8 days prior to treatments.
This experimental model of neuronal apoptosis has been used widely used to understand the molecular mechanisms underlying neurodegeneration and to identify biological and chemical agents with neuroprotective efficacy. For this, the cells were rinsed once and then maintained in low K^+ medium (serum-free BME medium, 5 mM KCl; referred to as LK), or in the case of control cultures, in high K^+ medium (serum-free BME medium, supplemented with 20 mM KCl; referred to as HK). Each compound was tested at three different concentrations of 1 μM, 5 μM, and 25 μM. The 25 μM concentration was included to evaluate neurotoxicity. For treatments, the chemical compounds (dissolved in dimethylsulfoxide) were added directly to LK medium at the time of the switch from HK at concentrations of 1 μM, 5 μM, or 25 μM. Viability was assessed 24 hours later. Each compound was tested in duplicate (at each of the concentrations) and the experiment repeated at least 3 times. Although all compounds were solubilized in dimethylsulfoxide (DMSO), the amount of DMSO in the cultures never exceeded 0.1% (v/v).
The viability status of neuronal cultures treated with HK, LK, or LK medium supplemented with various compounds was evaluated by phase contrast microscopy and quantified by staining cell nuclei with 4′,6′-diamidino2-phenylindole hydrochloride (DAPI). Briefly, the cells were fixed in 4% paraformaldehyde for 20 minutes at 4′C. After washing in phosphate buffered saline, DAPI (1 μg/ml in phosphate buffered saline) was added for 15 min at room-temperature and viewed under ultraviolet light (260 nm). Cells with condensed or fragmented nuclei were scored as dead. […] Statistical analysis was performed using an unpaired, two-tailed Student's t test, compared to mean neuronal survival of control cultures receiving LK treatment and the quantitative data are presented in Tables 1 and 2 for each compound.

[1] = LK medium, concentration not specified

Row | Compound | neuroprotective activity (in words) [1] | % neuronal survival Mean ± SD (Table 1, 1 μM in LK medium) | % neuronal survival Mean ± SD (Table 1, 5 μM in LK medium) | % neuronal survival Mean ± SD (Table 1, 25 μM in LK medium) [%] | neurotoxicity (in words) | % neuronal survival Mean ± SD (Table 2, 1 μM in LK medium) [%] | % neuronal survival Mean ± SD (Table 2, 5 μM in LK medium) [%] | % neuronal survival Mean ± SD (Table 2, 25 μM in LK medium) [%] | neuroprotective activity (in words) (at all three concentrations) | neuroprotective activity (in words) (at 25 μM / high doses) | neuroprotective activity (in words) (at 1 μM and 5 μM (two lower concentrations))
1 | COc1ccc(/C=C2/C(=O)Nc3ccc(Br)cc32)cc1 [Compound 19, (E)-5-Bromo-3-(4′-methoxybenzylidene)indolin-2-one] | not effective | 57.1 ± 4.51% | 59.5 ± 9.10% | 60.5 ± 9.56 | – | – | – | – | – | – | –
2 | O=C1Nc2ccccc2/C1=C\c1c(Cl)cccc1Cl [Compound 5, (E)-3-(2′,6′-Dichlorobezylidene)indolin-2-one] | ineffective | 54.6 ± 10.27% | 52.9 ± 3.94% | 24.5 ± 12.38 | toxic | – | – | – | – | – | –
3 | O=C1Nc2ccc([N+](=O)[O-])cc2/C1=C\C=Cc1ccccc1[N+](=O)[O-] [Compound 27] | – | 78.6 ± 6.84 % | 51.9 ± 7.50% | 78.6 ± 16.33 | – | – | – | – | – | – | –
4 | O=C1Nc2ccc([N+](=O)[O-])cc2/C1=C/c1cccs1 [Compound 42, (Z)-5-Nitro-3-(thien-2′-ylmethylene)indolin-2-one] | – | – | – | – | – | 75.1 ± 9.11 | 67.6 ± 2.29 | 66.9 ± 10.30 | – | – | –
5 | O=C1Nc2ccc([N+](=O)[O-])cc2/C1=C/c1ccc[nH]1 [Compound 39] | – | – | – | – | – | 84.4 ± 3.41 | 90.1 ± 6.55 | 87.9 ± 1.40 | – | – | –
6 | O=C1Nc2ccc(Cl)cc2/C1=C/c1cc(Br)cc(Br)c1 [Compound 8, (Z)-3-(3′,5′-Dibromobenzylidene)-5-chloroindolin-2-one] | substantially less effective | 77.7 ± 17.51% | 68.5 ± 11.86% | 64.4 ± 9.65 | – | – | – | – | – | – | –
7 | O=C1Nc2ccccc2/C1=C\c1ccco1 [Compound 45, (E)-3-(Furan-2′-ylmethylene)indoline-2-one] | excellent activity | – | – | – | – | 70.4 ± 8.35 | 82.8 ± 5.22 | 90.2 ± 3.91 | – | – | –
8 | O=C1Nc2ccc(F)cc2/C1=C\c1ccccc1 [Compound 33, (E)-3-Benzylidene-5-fluoroindolin-2-one] | not effective | 53.4 ± 2.12% | 51.9 ± 15.56% | 31.5 ± 17.51 | – | – | – | – | – | – | –
9 | CN(C)c1ccc(/C=C2/C(=O)Nc3ccc(Cl)cc32)cc1 [Compound 15, (E)-5-Chloro-3-(4′-(dimethylamino)benzylidene)indolin-2-one] | – | 51.8 ± 15.66% | 55.8 ± 16.94% | 79.7 ± 4.69 | – | – | – | – | – | – | –
10 | O=C1Nc2ccccc2C1=CC=Cc1ccccc1 [Compound 4, 3-(3′-Phenylallylidene)indolin-2-one] | moderately protective | 86.0 ± 2.03 % | 83.6 ± 18.88% | 81.1 ± 6.22 | non-toxic | – | – | – | moderately efficacious | – | –
11 | O=C1Nc2ccccc2/C1=C/c1cccs1 [Compound 41, (Z)-3-(Thien-2′-ylmethylene)indolin-2-one] | – | – | – | – | – | 68.3 ± 13.16 | 77.1 ± 13.16 | 86.2 ± 4.03 | – | moderately active | –
12 | CC(=O)c1ccc2c(c1)/C(=C/c1ccc[nH]1)C(=O)N2 [Compound 38] | moderate protective activity | – | – | – | – | 69.5 ± 12.61 | 87.3 ± 22.50 | 87.1 ± 24.50 | – | – | –
13 | CN(C)c1ccc(/C=C2/C(=O)Nc3ccc(Br)cc32)cc1 [Compound 20, (E)-5-Bromo-3-(4′-(dimethylamino)benzylidene)indolin-2-one] | not effective | 56.5 ± 2.28% | 54.9 ± 9.18% | 68.6 ± 9.38 | – | – | – | – | – | – | –
14 | CC(=O)c1ccc2c(c1)/C(=C/c1cc(Br)c(O)c(Br)c1)C(=O)N2 [Compound 34, (Z)-5-Acetyl-3-(3′,5′-dibromo-4′-hydroxybenzylidene)indolin-2-one] | superior to Compound 1 | 96.8% and 96.8 ± 6.15 % | 110.3% and 110.3 ± 8.50 % | 2.2 ± 1.63 | – | – | – | – | – | – | impressive neuroprotection
15 | O=C1Nc2ccc(F)cc2/C1=C\c1cc(Br)c(O)c(Br)c1 [Compound 30, (E)-3-(3′,5′-Dibromo-4′-hydroxybenzylidene)-5-fluoro-indolin-2-one] | not effective | 49.3 ± 10.34% | 69.6 ± 8.96% | 18.1 ± 11.00 | toxic | – | – | – | – | – | –
16 | O=C1Nc2ccc(Br)cc2/C1=C/c1cc(Br)cc(Br)c1 [Compound 17, (Z)-5-Bromo-3-(3′,5′-dibromobenzylidene)indolin-2-one] | – | 54.7 ± 8.56% | 45.4 ± 3.05% | 46.9 ± 7.74 | – | – | – | – | – | – | –
17 | COc1cc(/C=C2\C(=O)Nc3ccc([N+](=O)[O-])cc32)cc(OC)c1OC [Compound 23, (Z)-3-(3′, 4′,5′-Trimethoxybenzylidene)-5-nitroindolin-2-one] | – | 76.6 ± 15.98% | 61.9 ± 5.87% | 69.0 ± 11.26 | – | – | – | – | – | – | –
18 | O=C1Nc2ccc([N+](=O)[O-])cc2/C1=C\C=C\c1ccccc1 [Compound 26] | – | 80.1 ± 4.21 % | 78.6 ± 13.04% | 83.9 ± 9.28 | – | – | – | – | – | – | –
19 | O=C1Nc2ccc(Cl)cc2/C1=C/c1ccc[nH]1 [Compound 36] | moderate protective activity | – | – | – | – | 71.2 ± 0.02 | 84.0 ± 16.97 | 82.6 ± 10.18 | – | – | –
20 | (Z)-5-Bromo (3-(1H-pyrrol-2′-yl)methylene)indolin-2-one [Compound 37] | one of the most potent effective neuroprotective agents discovered | – | – | – | – | 75.5 ± 14.58 | 94.2 ± 0.15 | 93.0 ± 1.38 | – | – | –
21 | COc1cc(/C=C2\C(=O)Nc3ccccc32)cc(OC)c1OC [Compound 3, (Z)-3-(3′, 4′,5′-Trimethoxybenzylidene)indolin-2-one] | reduced activity | 50.8 ± 7.50% | 59.9 ± 7.98% | 61.3 ± 11.35 | – | – | – | – | not protective | – | –
22 | COc1cc(/C=C2\C(=O)Nc3ccc(Cl)cc32)cc(OC)c1OC [Compound 10, (Z)-5-Chloro-3-(3′, 4′,5′-trimethoxybenzylidene)indolin-2-one] | – | 81.1 ± 9.81 % | 71.0 ± 7.26 % | 57.1 ± 10.13 | – | – | – | – | – | – | –
